According to PubChem BioAssay (NCI):
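Each compound was tested at five concentrations against cells in 96-well plates for 48 hours. GI50: concentration for 50% inhibition of growth. TGI is the concentration that stops growth completely.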

What was measured:
Test in all cases: NCI-60 cell line screen, 48 h
[1] = system: 786-0 renal
[2] = system: HCC-2998 colon
[3] = system: LOX IMVI melanoma
[4] = system: MDA-MB-231 breast
[5] = system: MOLT-4 leukemia
[6] = system: NCI-H23 lung
[7] = system: NCI/ADR-RES ovarian
[8] = system: SK-MEL-28 melanoma
[9] = system: SW-620 colon
[10] = system: T-47D breast

SMILES	GI50 [1] [µM]	TGI [1] [µM]	GI50 [2] [µM]	TGI [2] [µM]	GI50 [3] [µM]	TGI [3] [µM]	GI50 [4] [µM]	TGI [4] [µM]	GI50 [5] [µM]	TGI [5] [µM]	GI50 [6] [µM]	TGI [6] [µM]	GI50 [7] [µM]	TGI [7] [µM]	GI50 [8] [µM]	TGI [8] [µM]	GI50 [9] [µM]	TGI [9] [µM]	GI50 [10] [µM]	TGI [10] [µM]
CC(=O)c1cccc(NC(=O)c2ccc(NC3=C(Cl)C(=O)N(Cc4ccccc4)C3=O)cc2)c1	16.5	36.4	23.1	41	13.9	33.8	15	38.3	2.21	> 100	23	43.7	30.8	> 100	25.6	> 100	5.87	> 100	25.1	> 100
FC(F)(F)c1[nH]ncc1-c1nc2ccc3[nH]ncc3c2c2c1CCCC2	1.55	4.08	1.58	3.89	1.09	2.6	1.84	6.19	1.29	5.29	1.52	4.32	2.49	13.9	1.41	4.86	1.75	11	2.03	9.39
CC(OC(=O)N(N(CCCl)S(C)(=O)=O)S(C)(=O)=O)c1ccc([N+](=O)[O-])cc1 (configuration not stated)	44.7	> 100	56	> 100	51.2	> 100	> 51	96.8	43.1	> 100	39.1	> 100	35.4	> 100	> 100	> 100	> 67.9	> 100	> 69.2	> 100
COc1ccc(-c2nnc(Nc3nc(O)c(C4=c5cc(F)ccc5=NC4=O)s3)o2)cc1	23.4	56.3	84.3	> 100	40	> 100	19.8	52.2	30.4	> 100	67.7	> 100	49.7	> 100	> 100	> 100	47.6	> 100	93.2	> 100
CCN1C(=O)N(CC)C2C1NN=c1s/c(=C\c3cccc([N+](=O)[O-])c3)c(=O)n12 (configuration not stated)	0.143	> 100	0.229	> 100	0.0568	> 100	0.231		0.24	> 100	0.413	> 100	0.0443	0.703		> 100	0.0468	> 100		> 100
Oc1ccccc1C=Nc1ccccc1N=Cc1ccccc1O.[Cu+2]	10.8	24.7	7.95	20.9	2.85	13.3	6.08	21.2	3.84	> 100	3.16	14	2.25	8.38	10.5	23.2	10.6	24.4	1.68	5.4
NC(CO)C(=O)NCC(=O)O (configuration not stated)		> 100		> 100		> 100		> 100		> 100		> 100		> 100		> 100		> 100		> 100
COc1ccc(C(=O)OC2C(OC3C(O)COC(O[C@H]4C[C@H]5[C@@H]6CC=C7C[C@@H](O)CC[C@]7(C)[C@H]6CC[C@]5(C)[C@H]4[C@H](C)C(=O)CCC(C)C)C3OC(C)=O)OCC(O)C2O)cc1 (some centres not stated)	< 0.003	0.441	0.216	12.7	< 0.003	0.00483	0.0313	4.55	< 0.003	< 0.003	0.0144	3.37	7.49	30	< 0.003	< 0.003	< 0.003	0.304	< 0.003	1.13
Oc1c2c(c(O)c3ccccc13)C1(N=N2)c2ccccc2Oc2ccccc21		11.5		38.7		7.31		32.4		> 100		> 100		33.4		28.8		18.1		47.8
CC(=O)/C(=C\c1c(-c2ccccc2)[nH]c2ccccc12)S(=O)(=O)c1ccccc1	1.62	3.44	1.38	2.78	1.39	3.27	1.74	19.2	1.35	6.39	1.48	5.52	0.513	5.62	1.87	7.02	0.73	7.14	1.26	7.03
CN(C)c1ccc(C(=C2C=CC(=[N+](C)C)C=C2)c2ccccc2Cl)cc1	0.341	1.13	0.354	1.28	0.224	0.836	0.338	1.73	0.593	12.9	0.282	1.28	1.89	14.8	0.4	1.44	0.288	1.19	0.188	0.901
